Data on 19 molecules can be found in patent US12037345B2, “Heterobicyclic compounds for inhibiting the activity of SHP2” (TAIHO PHARMACEUTICAL CO., LTD., priority 2018, dated 2024).

Counter-ions that a name gives are not always drawn. Like-named read-outs stand apart in the source and are kept apart here.

In experiment [1] the test system is pERK (phospho-p44/42 MAPK Thr202/Tyr204) in HCC827 cells. Kind of experiment: Cellular pERK Inhibition Assay, Method B (PathScan phospho-p44/42 MAPK sandwich ELISA). The note with it: for IC50: Homo sapiens. The class given is cell-based. The protocol: Cellular pERK Inhibition Assay
HCC827 cells (ATCC, Manassas, USA) were seeded into 96-well plates at a density of 1×10^5 cells/well in RPMI medium supplemented with 10% FBS and incubated 24h. Compounds were diluted first in DMSO and then into serum-free medium, before being added to cells in triplicate to give a final concentration of 0.1% DMSO. Plates were incubated at 37° C. for the indicated time in a humidified atmosphere of 5% CO2 in air.
Following compound treatment, medium was removed and cells were lysed by adding 50 μL of lysis buffer (Cell Signalling Technology, Beverly, USA) to each well. Plates were then incubated at room temperature for 25 minutes with shaking. pERK levels were measured in lysates using the PathScan(Registered Trademark) phospho-p44/42 MAPK (Thr202/Tyr204) sandwich ELISA (Cell Signalling Technology, Beverly, USA) as per kit instructions. Briefly, 50 μL of cell lysate was added to 50 μL of ELISA sample diluent in a 96-well ELISA plate and incubated overnight at 4° C. Following washing, 100 μL of detection antibody was added per well and the plates incubated for 1 hour at 37° C. Plates were washed again and incubated at 37° C. for 30 minutes with 100 μl of HRP-linked secondary antibody per well. After final washing, 100 μL per well of TMB substrate was added and plates incubated at 37° C. to develop colour. Colour development was stopped by the addition of 100 μL per well of stop solution. Plates were read at 450 nm on a SpectraMax Gemini reader (Molecular Devices, Uckfield, UK).
The average signal from blank wells (no cells added) was subtracted from the signals from each sample well. Levels of pERK were then expressed as “percent of control”, using DMSO treated samples as control. Dose response curves were generated using GraphPad Prism Version 6 (GraphPad Software, La Jolla, USA) and fitted using the four parameter logistic curve fit.
On the technique in general: An ELISA detects its analyte on a solid surface through an enzyme-linked reagent.

For the next experiment, the target named is SHP2 (Homo sapiens (Human), UniProt Q06124). Put plainly: SHP2 Biochemical Assay (DiFMUP conversion, pIRS1-activated). The essentials:
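Rates of DiFMU formation were followed 30 min at ex 360/em 450 nm, with 50 μM DiFMUP, 10 pM SHP2 and pIRS1 peptide ([…]) after 30 min compound pre-incubation at pH 7.0 Bis-Tris propane. Four-parameter logistic IC50s in singlicate; repeat runs averaged.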

Where [2] appears, read: Table 19, head prints unit as "-M", read-out: pERK (IC50) Method B.
Setting [3] is: Table 19, head prints unit as "-M".
Where [4] appears, read: Table 20, read-out: pERK (IC50, μM) Method B.

SHP2, sequence (Q06124 whole entry): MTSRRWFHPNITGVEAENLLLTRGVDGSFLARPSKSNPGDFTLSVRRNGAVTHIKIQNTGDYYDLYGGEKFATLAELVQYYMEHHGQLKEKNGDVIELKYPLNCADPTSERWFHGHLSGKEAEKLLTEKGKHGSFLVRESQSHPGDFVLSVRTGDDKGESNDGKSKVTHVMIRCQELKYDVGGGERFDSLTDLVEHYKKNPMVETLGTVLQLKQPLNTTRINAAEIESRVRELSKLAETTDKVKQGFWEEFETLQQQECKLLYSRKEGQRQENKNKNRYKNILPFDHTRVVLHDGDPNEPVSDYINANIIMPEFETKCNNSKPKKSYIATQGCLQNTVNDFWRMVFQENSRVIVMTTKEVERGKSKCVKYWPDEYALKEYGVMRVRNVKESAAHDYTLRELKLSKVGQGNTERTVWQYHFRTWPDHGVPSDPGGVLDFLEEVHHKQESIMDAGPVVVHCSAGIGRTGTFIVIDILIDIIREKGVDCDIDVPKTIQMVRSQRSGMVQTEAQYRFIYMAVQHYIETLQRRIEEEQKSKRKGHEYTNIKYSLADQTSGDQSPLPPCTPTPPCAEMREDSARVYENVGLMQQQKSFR

Usually IC50 stands for the concentration at which inhibition is half-maximal. Take `CCn1cc2c(Cl)c(-c3c[nH]c4nc(N5CCC6(CC5)CO[C@@H](C)[C@H]6N)n(C)c(=O)c34)ccc2n1` [Example 150, 2-[(3S,4S)-4-amino-3-methyl-2-oxa-8-azaspiro[4.5]decan-8-yl]-5-(4-chloro-2-ethyl-2H-indazol-5-yl)-3-methyl-3H,4H,7H-pyrrolo[2,3-d]pyrimidin-4-one]: the results for the IC50 (in experiment [1] (setting [2]); on SHP2 (setting [3])) were 0.013 µM and 0.012 µM, respectively.

`Cn1cc2c(Cl)c(-c3n[nH]c4nc(N5CCC6(CCC[C@H]6N)CC5)n(C)c(=O)c34)ccc2n1` [Example 142, 6-[(1R)-1-amino-8-azaspiro[4.5]decan-8-yl]-3-(4-chloro-2-methyl-2H-indazol-5-yl)-5-methyl-1H,4H,5H-pyrazolo[3,4-d]pyrimidin-4-one]: the IC50 in experiment [1] (setting [2]) stood at 0.11 µM; against SHP2 (setting [3]), 0.017 µM.

For the molecule `CCn1cc2c(Cl)c(-c3c[nH]c4nc(N5CC6CNC(C6)C5)n(C)c(=O)c34)ccc2n1` (single isomer, unassigned) [Example 190, 5-(4-chloro-2-ethyl-2H-indazol-5-yl)-2-{3,6-diazabicyclo[3.2.1]octan-3-yl}-3-methyl-3H,4H,7H-pyrrolo[2,3-d]pyrimidin-4-one hydrochloride], the IC50 was 3.3 µM in experiment [1] (setting [4]) and 0.045 µM against SHP2 (Table 20).

Turning to `Cn1cc2c(Cl)c(-c3c[nH]c4nc(N5[C@@H]6CC[C@@H](N)[C@H]5CC6)n(C)c(=O)c34)ccc2n1` (racemic) [Example 152, rac-2-[(1R,2R,5R)-2-amino-8-azabicyclo[3.2.1]octan-8-yl]-5-(4-chloro-2-methyl-2H-indazol-5-yl)-3-methyl-3H,4H,7H-pyrrolo[2,3-d]pyrimidin-4-one], the IC50 in experiment [1] (setting [2]) worked out at 0.66 µM; at SHP2 (setting [3]), 0.029 µM.

In the case of `C[C@@H]1OCC2(CCN(c3nc4[nH]nc(-c5ccc6nn(C)cc6c5Cl)c4c(=O)n3C)CC2)[C@@H]1N` [Example 143, 6-[(3S,4S)-4-amino-3-methyl-2-oxa-8-azaspiro[4.5]decan-8-yl]-3-(4-chloro-2-methyl-2H-indazol-5-yl)-5-methyl-1H,4H,5H-pyrazolo[3,4-d]pyrimidin-4-one], the half-inhibitory concentration (IC50) was 0.081 µM in experiment [1] (setting [2]) and 0.022 µM against SHP2 (setting [3]).

In the case of `Cn1cc2c(Cl)c(-c3c[nH]c4nc(N5[C@H]6CC[C@@H]5[C@](C)(N)C6)n(C)c(=O)c34)ccc2n1` [Example 195, 2-[(endo)-2-amino-2-methyl-7-azabicyclo[2.2.1]heptan-7-yl]-5-(4-chloro-2-methyl-2H-indazol-5-yl)-3-methyl-3H,4H,7H-pyrrolo[2,3-d]pyrimidin-4-one hydrochloride], the IC50 in experiment [1] (setting [4]) was found to be 0.045 µM; at SHP2 (Table 20) it was 0.016 µM.

`Cn1cc2c(Cl)c(-c3n[nH]c4nc(N5CCC6(CC5)COC[C@H]6N)n(C)c(=O)c34)ccc2n1` [Example 139, 6-[(4S)-4-amino-2-oxa-8-azaspiro[4.5]decan-8-yl]-3-(4-chloro-2-methyl-2H-indazol-5-yl)-5-methyl-1H,4H,5H-pyrazolo[3,4-d]pyrimidin-4-one]: the IC50 came out at 0.097 µM in experiment [1] (setting [2]) and 0.02 µM against SHP2 (setting [3]).

On to `Cn1cc2c(Cl)c(-c3c[nH]c4nc(N5[C@@H]6CCNC[C@H]5CC6)n(C)c(=O)c34)ccc2n1` (racemic) [Example 153, rac-5-(4-chloro-2-methyl-2H-indazol-5-yl)-2-[(1R,6S)-3,9-diazabicyclo[4.2.1]nonan-9-yl]-3-methyl-3H,4H,7H-pyrrolo[2,3-d]pyrimidin-4-one], for which the IC50 in experiment [1] (setting [2]) was 0.52 µM; on SHP2 (setting [3]), 0.026 µM.

Turning to `Cn1cc2c(Cl)c(-c3n[nH]c4nc(N5C6CCC5CNC6)n(C)c(=O)c34)ccc2n1` [Example 137, 3-(4-chloro-2-methyl-2H-indazol-5-yl)-6-{3,8-diazabicyclo[3.2.1]octan-8-yl}-5-methyl-1H,4H,5H-pyrazolo[3,4-d]pyrimidin-4-one], the “pERK Method B, % at given concentration” value in experiment [1] (Table 19, at 3.0 μM) was found to be 45% at 3.0 μM. At SHP2 (setting [3]), this molecule displayed an IC50 of 0.059 µM.

`CCn1cc2c(Cl)c(-c3c[nH]c4nc(N5[C@H]6CC[C@@H]5[C@@H](F)[C@@H](N)C6)n(C)c(=O)c34)ccc2n1` [Example 197, 2-[(1R,2S,3S,5S)-3-amino-2-fluoro-8-azabicyclo[3.2.1]octan-8-yl]-5-(4-chloro-2-ethyl-2H-indazol-5-yl)-3-methyl-3H,4H,7H-pyrrolo[2,3-d]pyrimidin-4-one hydrochloride]: the values for the IC50 (in experiment [1] (setting [4]); on SHP2 (Table 20)) were 0.032 µM and 0.012 µM, respectively.

As to `C[C@@H]1OCC2(CCN(c3nc4[nH]nc(-c5ccc6nn(C)c(Cl)c6c5Cl)c4c(=O)n3C)CC2)[C@@H]1N` [Example 147, 6-[(3S,4S)-4-amino-3-methyl-2-oxa-8-azaspiro[4.5]decan-8-yl]-3-(3,4-dichloro-2-methyl-2H-indazol-5-yl)-5-methyl-1H,4H,5H-pyrazolo[3,4-d]pyrimidin-4-one hydrochloride salt], the results for the IC50 (in experiment [1] (setting [2]); against SHP2 (setting [3])) were 0.034 µM and 0.012 µM, respectively.

With `CNc1ccc2ccc(-c3c[nH]c4nc(N5[C@H]6CC[C@@H]5[C@H](N)C6)n(C)c(=O)c34)c(Cl)c2n1` [Example 199, 2-[(1R,2R,4S)-2-amino-7-azabicyclo[2.2.1]heptan-7-yl]-5-[8-chloro-2-(methylamino)quinolin-7-yl]-3-methyl-3H,4H,7H-pyrrolo[2,3-d]pyrimidin-4-one hydrochloride], the IC50 worked out at 0.11 µM in experiment [1] (setting [4]) and 0.014 µM at SHP2 (Table 20).

Take `CCn1cc2c(Cl)c(-c3c[nH]c4nc(N5CCCC(N)CC5)n(C)c(=O)c34)ccc2n1` (racemic) [Example 154, rac-2-(4-aminoazepan-1-yl)-5-(4-chloro-2-ethyl-2H-indazol-5-yl)-3-methyl-3H,4H,7H-pyrrolo[2,3-d]pyrimidin-4-one hydrochloride]: the IC50 worked out at 0.92 µM in experiment [1] (setting [2]) and 0.021 µM at SHP2 (setting [3]).

On to `Cn1nc2ccc(-c3n[nH]c4nc(N5CC6COCC(C5)N6)n(C)c(=O)c34)c(Cl)c2c1Cl` [Example 146, 3-(3,4-dichloro-2-methyl-2H-indazol-5-yl)-5-methyl-6-{3-oxa-7,9-diazabicyclo[3.3.1]nonan-7-yl}-1H,4H,5H-pyrazolo[3,4-d]pyrimidin-4-one hydrochloride salt], for which the IC50 was 3.8 µM in experiment [1] (setting [2]) and 0.057 µM on SHP2 (setting [3]).

As to `Cn1c(N2CC[C@H](N)[C@H](F)C2)nc2[nH]cc(-c3ccc4ncsc4c3Cl)c2c1=O` [Example 187, 2-[(3R,4S)-4-amino-3-fluoropiperidin-1-yl]-5-(7-chloro-1,3-benzothiazol-6-yl)-3-methyl-3H,4H,7H-pyrrolo[2,3-d]pyrimidin-4-one hydrochloride], the IC50 in experiment [1] (setting [4]) amounted to 0.8 µM; against SHP2 (Table 20) it was 0.051 µM.

For the molecule `CCn1cc2c(Cl)c(-c3c[nH]c4nc(N5CC6CNCC5C6)n(C)c(=O)c34)ccc2n1` (single isomer, unassigned) [Example 192, 5-(4-chloro-2-ethyl-2H-indazol-5-yl)-2-{3,6-diazabicyclo[3.2.1]octan-6-yl}-3-methyl-3H,4H,7H-pyrrolo[2,3-d]pyrimidin-4-one hydrochloride], the IC50 in experiment [1] (setting [4]) came to 0.99 µM; at SHP2 (Table 20) it was 0.067 µM.

As to `CCn1cc2cc(-c3c[nH]c4nc(N5CCC6(CC5)COC[C@H]6N)n(C)c(=O)c34)ccc2n1` [Example 180, 2-[(4S)-4-amino-2-oxa-8-azaspiro[4.5]decan-8-yl]-5-(2-ethyl-2H-indazol-5-yl)-3-methyl-3H,4H,7H-pyrrolo[2,3-d]pyrimidin-4-one hydrochloride], the half-maximal inhibitory concentration (IC50) in experiment [1] (setting [4]) was 0.85 µM; on SHP2 (Table 20), 0.034 µM.

Regarding `Cn1cc2c(Cl)c(-c3n[nH]c4nc(N5CCC6(CC5)CNC6)n(C)c(=O)c34)ccc2n1` [Example 141, 3-(4-chloro-2-methyl-2H-indazol-5-yl)-6-{2,7-diazaspiro[3.5]nonan-7-yl}-5-methyl-1H,4H,5H-pyrazolo[3,4-d]pyrimidin-4-one], the “pERK Method B, % at given concentration” value in experiment [1] (Table 19, at 10 μM) is 64% at 10 μM. This molecule yielded an IC50 against SHP2 (setting [3]) of 0.043 µM.

In the case of `Cn1cc2c(Cl)c(-c3n[nH]c4nc(N5CCC6(CC5)C[C@H](O)C[C@H]6N)n(C)c(=O)c34)ccc2n1` [Example 138, 6-[(1R,3S)-1-amino-3-hydroxy-8-azaspiro[4.5]decan-8-yl]-3-(4-chloro-2-methyl-2H-indazol-5-yl)-5-methyl-1H,4H,5H-pyrazolo[3,4-d]pyrimidin-4-one], the IC50 is 1.6 µM in experiment [1] (setting [2]) and 0.019 µM on SHP2 (setting [3]).
